Each compound was assayed against Human Factor D (Homo sapiens (Human), UniProt P00746) (assay: Human Factor D Assay). Settings: Table 6; Factor D 80 nM, substrate Z-L-Lys-SBz; read-out: IC50.
Assay type: biochemical
Experimental: The assay of Example 10 was used to determine the IC50's of the compounds. Other standard factor D inhibition assays are also available.
Human Factor D (purified from human serum, Complement Technology, Inc.) at 80 nM final concentration is incubated with test compound at various concentrations for 5 min at room temperature in 50 mM Tris, 1M NaCl, pH 7.5. A synthetic substrate Z-L-Lys-SBz and DTNB (Ellman's reagent) are added to final concentrations of 100 μM each. Absorbance at 405 nm (A405) is recorded at 30 second intervals for 30 min using a microplate spectrophotometer. IC50 values are calculated by nonlinear regression of complement Factor D reaction rates as a function of test compound concentration.

Chain of Human Factor D (P00746 26-253): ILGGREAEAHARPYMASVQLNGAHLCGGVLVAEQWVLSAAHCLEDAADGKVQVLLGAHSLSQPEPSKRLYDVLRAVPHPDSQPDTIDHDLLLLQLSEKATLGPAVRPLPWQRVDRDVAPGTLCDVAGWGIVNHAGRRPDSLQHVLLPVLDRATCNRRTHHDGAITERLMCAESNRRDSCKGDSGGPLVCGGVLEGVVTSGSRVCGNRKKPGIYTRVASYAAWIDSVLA

Compound	IC50 [nM]
CC(=O)c1nn(CC(=O)N2[C@H](C(=O)O)C[C@@]3(C)C[C@@H]23)c2ccc(-c3cnc(C)nc3)cc12 [Compound 40, (1R,3S,5R)-2-(2-(3-acetyl-5-(2-methylpyrimidin-5-yl)-1H-indazol-1-yl)acetyl)-5-methyl-2-azabicyclo[3.1.0]hexane-3-carboxylic acid]	> 10000
CC(=O)c1nn(CC(=O)N2C[C@H](F)C[C@H]2C(=O)Nc2cccc(Br)n2)c2c(C(=O)O)cc(-c3cnc(C)nc3)cc12 [Compound 41, 3-acetyl-1-(2-((2S,4R)-2-((6-bromopyridin-2-yl)carbamoyl)-4-fluoropyrrolidin-1-yl)-2-oxoethyl)-5-(2-methylpyrimidin-5-yl)-1H-indazole-7-carboxylic acid]	< 1000
CNCC12CC1N(C(=O)Cn1nc(C(C)=O)c3cc(-c4cnc(C)nc4)ccc31)[C@H](C(=O)Nc1nc(Br)ccc1C)C2 (stereo partly drawn) [Compound 42, (3S)-2-(2-(3-acetyl-5-(2-methylpyrimidin-5-yl)-1H-indazol-1-yl)acetyl)-N-(6-bromo-3-methylpyridin-2-yl)-5-((methylamino)methyl)-2-azabicyclo[3.1.0]hexane-3-carboxamide]	< 1000
CC(=O)NC[C@@]12C[C@@H]1N(C(=O)Cn1nc(C(C)=O)c3cc(-c4cnc(C)nc4)ccc31)[C@H](C(=O)Nc1cccc(Br)n1)C2 [Compound 43, (1S,3S,5S)-5-(Acetamidomethyl)-2-(2-(3-acetyl-5-(2-methylpyrimidin-5-yl)-1H-indazol-1-yl)acetyl)-N-(6-bromopyridin-2-yl)-2-azabicyclo[3.1.0]hexane-3-carboxamide]	1000 to 10000
CC(=O)NC[C@@]12C[C@@H](C(=O)Nc3cccc(Br)n3)N(C(=O)Cn3nc(C(C)=O)c4cc(-c5cnc(C)nc5)ccc43)[C@@H]1C2 [Compound 44, (1R,3S,5R)-5-(Acetamidomethyl)-2-(2-(3-acetyl-5-(2-methylpyrimidin-5-yl)-1H-indazol-1-yl)acetyl)-N-(6-bromopyridin-2-yl)-2-azabicyclo[3.1.0]hexane-3-carboxamide]	< 1000
COC(=O)N[C@H](C(=O)NCC12CC1N(C(=O)Cn1nc(C(C)=O)c3cc(-c4cnc(C)nc4)ccc31)[C@H](C(=O)Nc1cccc(Br)n1)C2)C(C)C (stereo partly drawn) [Compound 45, Methyl (2S)-1-(((3S)-2-(2-(3-acetyl-5-(2-methylpyrimidin-5-yl)-1H-indazol-1-yl)acetyl)-3-(6-bromopyridin-2-ylcarbamoyl)-2-azabicyclo[3.1.0]hexan-5-yl)methylamino)-3-methyl-1-oxobutan-2-ylcarbamate]	< 1000
CC(=O)c1nn(CC(=O)N2[C@H](C(=O)Nc3ccc(F)c(Br)n3)C[C@@]3(C)C[C@@H]23)c2c(C)cc(-c3cnc(C)nc3)cc12 [Compound 46, (1R,3S,5R)-2-(2-(3-acetyl-7-methyl-5-(2-methylpyrimidin-5-yl)-1H-indazol-1-yl)acetyl)-N-(6-bromo-5-fluoropyridin-2-yl)-5-methyl-2-azabicyclo[3.1.0]hexane-3-carboxamide]	< 1000
CCc1cc(-c2cnc(C)nc2)cc2c(C(C)=O)nn(CC(=O)N3[C@H](C(=O)Nc4nc(Br)ccc4C)C[C@@]4(C)C[C@@H]34)c12 [Compound 47, (1R,3S,5R)-2-(2-(3-Acetyl-7-ethyl-5-(2-methylpyrimidin-5-yl)-1H-indazol-1-yl)acetyl)-N-(6-bromo-3-methylpyridin-2-yl)-5-methyl-2-azabicyclo[3.1.0]hexane-3-carboxamide]	< 1000
COCc1ccc(Br)c(NC(=O)[C@@H]2CC3(CNC(=O)[C@@H](NC(=O)OC)C(C)C)CC3N2C(=O)Cn2nc(C(C)=O)c3cc(-c4cnc(C)nc4)ccc32)n1 (stereo partly drawn) [Compound 48, methyl ((2S)-1-((((3S)-2-(2-(3-acetyl-5-(2-methylpyrimidin-5-yl)-1H-indazol-1-yl)acetyl)-3-((3-bromo-6-(methoxymethyl)pyridin-2-yl)carbamoyl)-2-azabicyclo[3.1.0]hexan-5-yl)methyl)amino)-3-methyl-1-oxobutan-2-yl)carbamate]	> 10000
CC(=O)c1nn(CC(=O)N2[C@H](C(=O)Nc3nc(Br)ccc3C)C[C@@]3(C)C[C@@H]23)c2c(C)cc(-c3cnc(C)[n+]([O-])c3)cc12 [Compound 50, 5-(3-Acetyl-1-(2-((1R,3S,5R)-3-(6-bromo-3-methylpyridin-2-ylcarbamoyl)-5-methyl-2-azabicyclo[3.1.0]hexan-2-yl)-2-oxoethyl)-7-methyl-1H-indazol-5-yl)-2-methylpyrimidine 1-oxide]	< 1000
Cc1ncc(-c2ccc3c(c2)c(C(N)=O)nn3CC(=O)N2C[C@H]3C[C@H]3[C@H]2C(=O)Nc2nc(Br)ccc2C)cn1 [Compound 56, 1-(2-((1R,2S,5S)-2-((6-Bromo-3-methylpyridin-2-yl)carbamoyl)-3-azabicyclo[3.1.0]hexan-3-yl)-2-oxoethyl)-5-(2-methylpyrimidin-5-yl)-1H-indazole-3-carboxamide]	< 1000
Cc1ncc(-c2cc(C)c3c(c2)c(C(N)=O)nn3CC(=O)N2[C@H](C(=O)Nc3nc(Br)ccc3C)C[C@@]3(C)C[C@@H]23)cn1 [Compound 57, 1-(2-((1R,3S,5R)-3-((6-Bromo-3-methylpyridin-2-yl)carbamoyl)-5-methyl-2-azabicyclo[3.1.0]hexan-2-yl)-2-oxoethyl)-7-methyl-5-(2-methylpyrimidin-5-yl)-1H-indazole-3-carboxamide]	< 1000
Cc1ncc(-c2cc(C)c3c(c2)c(C(N)=O)nn3CC(=O)N2[C@H](C(=O)Nc3cccc(Br)n3)C[C@@]3(C)C[C@@H]23)cn1 [Compound 58, 1-(2-((1R,3S,5R)-3-((6-Bromopyridin-2-yl)carbamoyl)-5-methyl-2-azabicyclo[3.1.0]hexan-2-yl)-2-oxoethyl)-7-methyl-5-(2-methylpyrimidin-5-yl)-1H-indazole-3-carboxamide]	< 1000
CC(=O)c1nn(CC(=O)N2C[C@H](F)C[C@H]2C(=O)Nc2nc(Br)ccc2CC(=O)O)c2ccc(-c3cnc(C)nc3)cc12 [Compound 62, 2-(2-((2S,4R)-1-(2-(3-Acetyl-5-(2-methylpyrimidin-5-yl)-1H-indazol-1-yl)acetyl)-4-fluoropyrrolidine-2-carboxamido)-6-bromopyridin-3-yl)acetic Acid]	< 1000
CC(=O)c1nn(CC(=O)N2[C@H](C(=O)Nc3nc(Br)ccc3C)C[C@@]3(C)C[C@@H]23)c2ccc(-c3cnc(C)[n+]([O-])c3)cc12 [Compound 64, 5-(3-acetyl-1-(2-((1R,3S,5R)-3-((6-bromo-3-methylpyridin-2-yl)carbamoyl)-5-methyl-2-azabicyclo[3.1.0]hexan-2-yl)-2-oxoethyl)-1H-indazol-5-yl)-2-methylpyrimidine 1-oxide]	< 1000
CC(=O)c1nn(CC(=O)N2[C@H](C(=O)Nc3nc(Br)ccc3C)C[C@@]3(CO)C[C@@H]23)c2ccc(-c3cnc(C)nc3)cc12 [Compound 65, (1R,3S,5S)-2-(2-(3-acetyl-5-(2-methylpyrimidin-5-yl)-1H-indazol-1-yl)acetyl)-N-(6-bromo-3-methylpyridin-2-yl)-5-(hydroxymethyl)-2-azabicyclo[3.1.0]hexane-3-carboxamide]	< 1000
CC(=O)c1nn(CC(=O)N2C[C@@](F)(CF)C[C@H]2C(=O)Nc2nc(Br)ccc2C)c2c(C)cc(-c3cnc(C)nc3)cc12 [Compound 66, (2S,4R)-1-(2-(3-Acetyl-7-methyl-5-(2-methylpyrimidin-5-yl)-1H-indazol-1-yl)acetyl)-N-(6-bromo-3-methylpyridin-2-yl)-4-fluoro-4-(fluoromethyl)pyrrolidine-2-carboxamide]	< 1000
CC(=O)c1nn(CC(=O)N2[C@H](C(=O)Nc3nc(Br)ccc3C)C[C@@]3(CN4CC5(CCC5)C4)C[C@@H]23)c2ccc(-c3cnc(C)nc3)cc12 [Compound 67, (1R,3S,5R)-5-(2-azaspiro[3.3]heptan-2-ylmethyl)-2-(2-(3-acetyl-5-(2-methylpyrimidin-5-yl)-1H-indazol-1-yl)acetyl)-N-(6-bromo-3-methylpyridin-2-yl)-2-azabicyclo[3.1.0]hexane-3-carboxamide]	< 1000
CC(=O)c1nn(CC(=O)N2[C@H]3C[C@@]3(CN3CC4(CCC4)C3)C[C@H]2C(=O)Nc2nc(Br)ccc2C)c2ccc(-c3cnc(C)nc3)cc12 [Compound 68]	< 1000
CC(=O)c1nn(CC(=O)N2[C@H](C(=O)Nc3nc(Br)ccc3C)C[C@@]3(CN4CCN(C)CC4)C[C@@H]23)c2c(C)cc(-c3cnc(C)nc3)cc12 [Compound 69, (1R,3S,5R)-2-(2-(3-Acetyl-7-methyl-5-(2-methylpyrimidin-5-yl)-1H-indazol-1-yl)acetyl)-N-(6-bromo-3-methylpyridin-2-yl)-5-((4-methylpiperazin-1-yl)methyl)-2-azabicyclo[3.1.0]hexane-3-carboxamide]	< 1000
C=CCOCc1ccc(Br)nc1NC(=O)[C@@H]1C[C@@]2(CN(C)CC=C)C[C@H]2N1C(=O)Cn1nc(C(C)=O)c2cc(-c3cnc(C)nc3)ccc21 [Compound 70, (1R,3S,5R)-2-(2-(3-Acetyl-5-(2-methylpyrimidin-5-yl)-1H-indazol-1-yl)acetyl)-5-((allyl(methyl)amino)methyl)-N-(3-((allyloxy)methyl)-6-bromopyridin-2-yl)-2-azabicyclo[3.1.0]hexane-3-carboxamide]	< 1000
Cc1ncc(-c2ccc3c(c2)c(C(C)O)nn3CC(=O)N2C[C@H]3C[C@H]3[C@H]2C(=O)Nc2nc(Br)ccc2C)cn1 (stereo partly drawn) [Compound 71, (1R,2S,5S)-N-(6-bromo-3-methylpyridin-2-yl)-3-(2-(3-(1-hydroxyethyl)-5-(2-methylpyrimidin-5-yl)-1H-indazol-1-yl)acetyl)-3-azabicyclo[3.1.0]hexane-2-carboxamide]	1000 to 10000

From US11084800B2 (Achillion Pharmaceuticals, Inc., priority 2017, dated 2021)
